# Measured values from patent US20200399222A1, “PICOLINAMIDES AS FUNGICIDES” (Dow AgroSciences LLC, priority 2018, published 2020).
# Like-named read-outs stand apart in the source and are kept apart here.
# Assays:
# Type in all cases: in vivo
# Zymoseptoria tritici = assay: Leaf blotch of wheat (SEPTTR) disease control on wheat seedlings; details: for pest or weed control at 121.5 g/ha: Low volume application; for pest or weed control at 100 ppm: High volume application
# Puccinia triticina = assay: Wheat brown rust (PUCCRT) disease control on wheat seedlings; details: for pest or weed control at 121.5 g/ha: Low volume application; for pest or weed control at 100 ppm: High volume application
# In short: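 Yuma wheat seedlings (first leaf emerged) sprayed to run-off with compound in acetone plus nine volumes water containing 110 ppm Triton X-100, or track-sprayed as EC formulations with 0.1% Trycol 5941. Rust spores inoculated before or after treatment; overnight dark dew, 22 °C, 100% RH, then greenhouse at 24 °C.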
# Phakopsora pachyrhizi = assay: Asian soybean rust (PHAKPA) disease control on soybean seedlings; details: Phakopsora pachyrhizi, High volume application at 25 ppm
# In short: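 Compounds in acetone diluted with nine volumes of water containing 0.011% Tween 20, sprayed to run-off on two-week-old Williams 82 soybean seedlings; inoculation 3 days before or 1 day after treatment. Plants held 24 h in dark dew room at 22° C, 100% RH, then at 23° C; disease severity scored on sprayed leaves.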
# [1] = 24 h, 1 Day Protectant, read-out: SEPTTR disease control rating, 1DP
# [2] = 72 h, 3 Day Curative, read-out: SEPTTR disease control rating, 3DC
# [3] = 24 h, 1 Day Protectant, read-out: PUCCRT disease control rating, 1DP
# [4] = 72 h, 3 Day Curative, read-out: PUCCRT disease control rating, 3DC
# [5] = 24 h, 1 day protectant, read-out: PHAKPA 1DP (1 Day Protectant) disease control
# [6] = 72 h, 3 day curative, read-out: PHAKPA 3DC (3 Day Curative) disease control
Structure (SMILES),pest or weed control at 121.5 g/ha (Zymoseptoria tritici; [1]) [%],pest or weed control at 121.5 g/ha (Zymoseptoria tritici; [2]) [%],pest or weed control at 121.5 g/ha (Puccinia triticina; [3]) [%],pest or weed control at 121.5 g/ha (Puccinia triticina; [4]) [%],pest or weed control at 25 ppm (Phakopsora pachyrhizi; [5]) [%],pest or weed control at 25 ppm (Phakopsora pachyrhizi; [6]) [%],pest or weed control at 100 ppm (Zymoseptoria tritici; [1]) [%],pest or weed control at 100 ppm (Zymoseptoria tritici; [2]) [%],pest or weed control at 100 ppm (Puccinia triticina; [3]) [%],pest or weed control at 100 ppm (Puccinia triticina; [4]) [%]
COc1ccnc(C(=O)N[C@@H](C)C(=O)O[C@H](C)[C@H](C)c2ccccc2C(F)(F)F)c1OC(=O)C(C)C [Example 239],< 80,< 80,< 0,< 0,< 80,< 80,,,,
COc1ccnc(C(=O)N[C@@H](C)C(=O)O[C@H](C)[C@H](C)c2ccc(F)cc2C(F)(F)F)c1OC(=O)C(C)C [Example 240],< 80,< 80,< 0,< 0,< 80,< 80,,,,
COc1ccnc(C(=O)N[C@@H](C)C(=O)O[C@H](C)[C@H](C)C2CCCC2)c1OC(=O)C(C)C [Example 241],< 80,< 0,< 0,< 0,< 0,< 0,,,,
COc1ccnc(C(=O)N[C@@H](C)C(=O)O[C@H](C)[C@H](C)c2c(C)cc(F)cc2C)c1OC(=O)C(C)C [Example 242],> 80,> 80,> 80,< 80,> 80,> 80,,,,
COc1ccnc(C(=O)N[C@@H](C)C(=O)OC(C)C(C)c2c(C)cccc2C)c1OC(=O)C(C)C (stereo partly drawn) [Example 243],< 80,< 80,< 80,< 80,> 80,> 80,,,,
COc1ccnc(C(=O)N[C@@H](C)C(=O)OC(C)C(C)c2c(C)cc(F)cc2C)c1OC(=O)C(C)C (stereo partly drawn) [Example 244],> 80,> 80,> 80,< 80,> 80,> 80,,,,
COc1ccnc(C(=O)N[C@@H](C)C(=O)O[C@@H](C)[C@@H](C)c2ccccc2C(F)(F)F)c1OC(C)=O [Example 245],> 80,> 80,> 80,< 80,> 80,> 80,,,,
COc1ccnc(C(=O)N[C@@H](C)C(=O)O[C@@H](C)[C@@H](C)c2ccc(F)cc2C(F)(F)F)c1OC(C)=O [Example 246],> 80,> 80,> 80,> 80,> 80,> 80,,,,
COc1ccnc(C(=O)N[C@@H](C)C(=O)O[C@@H](C)[C@@H](C)C2CCCC2)c1OC(C)=O [Example 247],< 80,< 80,< 80,< 80,> 80,< 80,,,,
COc1ccnc(C(=O)N[C@@H](C)C(=O)O[C@@H](C)[C@@H](C)c2c(C)cccc2C)c1OC(C)=O [Example 248],< 80,> 80,> 80,< 80,> 80,> 80,,,,
COc1ccnc(C(=O)N[C@@H](C)C(=O)O[C@@H](C)[C@@H](C)c2c(C)cc(F)cc2C)c1OC(C)=O [Example 249],> 80,> 80,> 80,> 80,> 80,> 80,,,,
COc1ccnc(C(=O)N[C@@H](C)C(=O)O[C@H](C)[C@H](C)c2ccccc2C(F)(F)F)c1OC(C)=O [Example 250],< 80,< 80,< 0,< 80,< 80,< 80,,,,
COc1ccnc(C(=O)N[C@@H](C)C(=O)O[C@H](C)[C@H](C)c2ccc(F)cc2C(F)(F)F)c1OC(C)=O [Example 251],< 80,< 80,< 80,< 80,> 80,< 80,,,,
COc1ccnc(C(=O)N[C@@H](C)C(=O)O[C@H](C)[C@H](C)C2CCCC2)c1OC(C)=O [Example 252],< 0,< 80,< 0,< 80,< 80,< 80,,,,
COc1ccnc(C(=O)N[C@@H](C)C(=O)O[C@H](C)[C@H](C)c2c(C)cccc2C)c1OC(C)=O [Example 253],< 80,< 80,> 80,< 80,> 80,> 80,,,,
COc1ccnc(C(=O)N[C@@H](C)C(=O)O[C@H](C)[C@H](C)c2c(C)cc(F)cc2C)c1OC(C)=O [Example 254],> 80,> 80,> 80,> 80,> 80,> 80,,,,
COc1ccnc(C(=O)N[C@@H](C)C(=O)OC(C)C(C)c2c(C)cccc2C)c1OC(C)=O (stereo partly drawn) [Example 255],< 80,> 80,> 80,< 80,> 80,> 80,,,,
COc1ccnc(C(=O)N[C@@H](C)C(=O)OC(C)C(C)c2c(C)cc(F)cc2C)c1OC(C)=O (stereo partly drawn) [Example 256],> 80,> 80,> 80,> 80,> 80,> 80,,,,
COc1ccccc1[C@H](C)[C@H](C)OC(=O)[C@H](C)NC(=O)c1nccc(OC)c1OC(C)=O [Example 257],< 80,< 80,< 80,< 80,< 80,< 0,,,,
COc1ccnc(C(=O)N[C@@H](C)C(=O)O[C@@H](C)[C@@H](C)c2ccccc2)c1OC(C)=O [Example 258],< 80,> 80,< 80,> 80,> 80,> 80,< 80,< 80,> 80,> 80
COc1ccnc(C(=O)N[C@@H](C)C(=O)O[C@@H](C)[C@@H](C)c2ccc(C)s2)c1OC(C)=O [Example 259],< 80,< 0,< 80,< 0,< 80,< 80,< 80,< 0,> 80,> 80
COc1cc(F)ccc1[C@@H](C)[C@@H](C)OC(=O)[C@H](C)NC(=O)c1nccc(OC)c1OC(C)=O [Example 260],< 80,< 0,< 0,< 0,> 80,< 80,< 80,< 80,> 80,< 80
COc1ccnc2c(=O)n([C@@H](C)C(=O)O[C@@H](C)[C@@H](C)c3ccccc3)c(=O)oc12 [Example 261],< 80,< 0,< 80,< 0,< 80,< 80,,,,
COc1cc(F)ccc1[C@@H](C)[C@@H](C)OC(=O)[C@H](C)n1c(=O)oc2c(OC)ccnc2c1=O [Example 262],< 80,< 80,< 0,< 0,< 80,< 80,,,,
